According to US20180325914A1, “INCREASING STORAGE OF VITAMIN A, VITAMIN D AND/OR LIPIDS” (Salk Institute for Biological Studies, priority 2014, published 2018):

System: primary HSCs
Conditions: mRNA-Seq expression

Cc1sc2c(c1C)C(c1ccc(Cl)cc1)=N[C@@H](CC(=O)OC(C)(C)C)c1nnc(C)n1-2 [JQ1, (S)-tert-butyl 2-(4-(4-chlorophenyl)-2,3,9-trimethyl-6H-thieno[3,2-f][1,2,4]triazolo[4,3-a][1,4]diazepin-6-yl)acetate]
value_2, gene Kcnab1 (Day_6_JQ1): 5.987 | value_2, gene Kctd11 (Day_6_JQ1): 40.3428 | value_2, gene Kidins220 (Day_6_JQ1): 34.7188 | value_2, gene Lamb1 (Day_6_JQ1): 116.83 | value_2, gene Large (Day_6_JQ1): 40.5667 | value_2, gene Lass6 (Day_6_JQ1): 16.8557 | value_2, gene Lbh (Day_6_JQ1): 311.939 | value_2, gene Lrp1 (Day_6_JQ1): 247.494 | value_2, gene Lynx1 (Day_6_JQ1): 16.3298 | value_2, gene Maged1 (Day_6_JQ1): 209.848 | value_2, gene Map1lc3a (Day_6_JQ1): 83.7075 | value_2, gene Marveld1 (Day_6_JQ1): 50.0393 | value_2, gene Mmab (Day_6_JQ1): 8.1326 | value_2, gene Morc4 (Day_6_JQ1): 8.504 | value_2, gene Mpp6 (Day_6_JQ1): 75.1224 | value_2, gene Mxra8 (Day_6_JQ1): 126.008 | value_2, gene Mypop (Day_6_JQ1): 8.4789 | value_2, gene Nans (Day_6_JQ1): 59.0594 | value_2, gene Ngfrap1 (Day_6_JQ1): 196.152 | value_2, gene Nxn (Day_6_JQ1): 73.7521 | value_2, gene Ogn (Day_6_JQ1): 68.5101 | value_2, gene Olfml3 (Day_6_JQ1): 169.404 | value_2, gene Oxct1 (Day_6_JQ1): 46.8229 | value_2, gene Palm (Day_6_JQ1): 43.4603 | value_2, gene Parva (Day_6_JQ1): 84.643 | value_2, gene Pbxip1 (Day_6_JQ1): 66.9739 | value_2, gene Pcbp4 (Day_6_JQ1): 31.1679 | value_2, gene Pde5a (Day_6_JQ1): 4.315 | value_2, gene Pdk3 (Day_6_JQ1): 17.7734 | value_2, gene Pdlim5 (Day_6_JQ1): 120.722 | value_2, gene Pdrg1 (Day_6_JQ1): 77.2251 | value_2, gene Pdzrn3 (Day_6_JQ1): 35.4736 | value_2, gene Pgp (Day_6_JQ1): 55.4841 | value_2, gene Pgrmc1 (Day_6_JQ1): 110.711 | value_2, gene Plcxd2 (Day_6_JQ1): 8.321 | value_2, gene Plk4 (Day_6_JQ1): 7.27 | value_2, gene Ppic (Day_6_JQ1): 178.683 | value_2, gene Pqlc3 (Day_6_JQ1): 21.232 | value_2, gene Prdx4 (Day_6_JQ1): 90.3086 | value_2, gene Prkab2 (Day_6_JQ1): 26.0507 | value_2, gene Prr11 (Day_6_JQ1): 6.831 | value_2, gene Prrx1 (Day_6_JQ1): 33.6888 | value_2, gene Ptk7 (Day_6_JQ1): 33.1681 | value_2, gene Ptprs (Day_6_JQ1): 25.6268 | value_2, gene Rab11fip5 (Day_6_JQ1): 18.6008 | value_2, gene Rbfox2 (Day_6_JQ1): 31.4181 | value_2, gene Rbms3 (Day_6_JQ1): 14.5408 | value_2, gene Rhou (Day_6_JQ1): 27.2789 | value_2, gene Rrm1 (Day_6_JQ1): 37.9825 | value_2, gene Rsu1 (Day_6_JQ1): 115.627 | value_2, gene Sepn1 (Day_6_JQ1): 53.0761 | value_2, gene Shisa4 (Day_6_JQ1): 29.5421 | value_2, gene Sidt2 (Day_6_JQ1): 85.8124 | value_2, gene Sil1 (Day_6_JQ1): 25.0211 | value_2, gene Smpd1 (Day_6_JQ1): 40.8765 | value_2, gene Snx7 (Day_6_JQ1): 31.6545 | value_2, gene Sparc (Day_6_JQ1): 3945.98 | value_2, gene St3gal2 (Day_6_JQ1): 27.017 | value_2, gene St6galnac6 (Day_6_JQ1): 21.1878 | value_2, gene Ston1 (Day_6_JQ1): 80.759 | value_2, gene Suox (Day_6_JQ1): 13.7986 | value_2, gene Synpo (Day_6_JQ1): 128.3 | value_2, gene Tln2 (Day_6_JQ1): 10.7793 | value_2, gene Tmem176b (Day_6_JQ1): 232.156 | value_2, gene Tubb2a (Day_6_JQ1): 56.747 | value_2, gene Tulp4 (Day_6_JQ1): 15.6577 | value_2, gene Tyms (Day_6_JQ1): 9.8 | value_2, gene Unc5b (Day_6_JQ1): 142.372 | value_2, gene Vcl (Day_6_JQ1): 188.104 | value_2, gene Wbp5 (Day_6_JQ1): 336.924 | value_2, gene Zfp449 (Day_6_JQ1): 5.689 | 4833442J19Rik value_2 (Day_6_JQ1) (primary HSCs, day 6 with JQ1): 5.928 | 4930583H14Rik value_2 (Day_6_JQ1) (primary HSCs, day 6 with JQ1): 0.6572 | AA467197 value_2 (Day_6_JQ1) (primary HSCs, day 6 with JQ1): 1.792 | AI427809 value_2 (Day_6_JQ1) (primary HSCs, day 6 with JQ1): 0.3782 | Acta1 value_2 (Day_6_JQ1) (primary HSCs, day 6 with JQ1): 5.299 | Actg2 value_2 (Day_6_JQ1) (primary HSCs, day 6 with JQ1): 9.747 | Adamtsl2 value_2 (Day_6_JQ1) (primary HSCs, day 6 with JQ1): 0.6746 | Ak4 value_2 (Day_6_JQ1) (primary HSCs, day 6 with JQ1): 2.207 | Alox5ap value_2 (Day_6_JQ1) (primary HSCs, day 6 with JQ1): 1.8396 | Angpt4 value_2 (Day_6_JQ1) (primary HSCs, day 6 with JQ1): 2.216 | Aoc3 value_2 (Day_6_JQ1) (primary HSCs, day 6 with JQ1): 0.7708 | Atp1a3 value_2 (Day_6_JQ1) (primary HSCs, day 6 with JQ1): 1.07 | Bcat1 value_2 (Day_6_JQ1) (primary HSCs, day 6 with JQ1): 1.171 | C1qtnf2 value_2 (Day_6_JQ1) (primary HSCs, day 6 with JQ1): 1.262 | C1qtnf5 value_2 (Day_6_JQ1) (primary HSCs, day 6 with JQ1): 5.303 | Cck value_2 (Day_6_JQ1) (primary HSCs, day 6 with JQ1): 0.3139 | Ccl12 value_2 (Day_6_JQ1) (primary HSCs, day 6 with JQ1): 0.2748 | Cdh3 value_2 (Day_6_JQ1) (primary HSCs, day 6 with JQ1): 1.477 | Cdh6 value_2 (Day_6_JQ1) (primary HSCs, day 6 with JQ1): 0.764 | Chd3 value_2 (Day_6_JQ1) (primary HSCs, day 6 with JQ1): 4.386 | Chst11 value_2 (Day_6_JQ1) (primary HSCs, day 6 with JQ1): 22.6881 | Cnn1 value_2 (Day_6_JQ1) (primary HSCs, day 6 with JQ1): 5.628 | Col6a2 value_2 (Day_6_JQ1) (primary HSCs, day 6 with JQ1): 6.3149 | Col6a3 value_2 (Day_6_JQ1) (primary HSCs, day 6 with JQ1): 7.234 | Col7a1 value_2 (Day_6_JQ1) (primary HSCs, day 6 with JQ1): 0.5444 | Col11a1 value_2 (Day_6_JQ1) (primary HSCs, day 6 with JQ1): 4.303 | Col15a1 value_2 (Day_6_JQ1) (primary HSCs, day 6 with JQ1): 0.2832 | Csdc2 value_2 (Day_6_JQ1) (primary HSCs, day 6 with JQ1): 0.913 | Cthrc1 value_2 (Day_6_JQ1) (primary HSCs, day 6 with JQ1): 4.104 | D430019H16Rik value_2 (Day_6_JQ1) (primary HSCs, day 6 with JQ1): 1.971 | Def6 value_2 (Day_6_JQ1) (primary HSCs, day 6 with JQ1): 0.8624 | Des value_2 (Day_6_JQ1) (primary HSCs, day 6 with JQ1): 14.4745 | Dkk2 value_2 (Day_6_JQ1) (primary HSCs, day 6 with JQ1): 0.918 | Dok5 value_2 (Day_6_JQ1) (primary HSCs, day 6 with JQ1): 1.203 | Dpep1 value_2 (Day_6_JQ1) (primary HSCs, day 6 with JQ1): 0.6357
